Test results taken from ChEMBL document CHEMBL4609974, “Triazole derivatives and their antiplasmodial and antimalarial activities” (Eur J Med Chem, 2019).
Converted amounts (≈) assume the structure as drawn.

Experiments:
[1] = test system: Plasmodium falciparum; test: Antimalarial activity against chloroquine-resistant Plasmodium falciparum W2; assay type: functional, organism-based
[2] = test system: Plasmodium falciparum; test: Antimalarial activity against chloroquine-sensitive Plasmodium falciparum D6; assay type: functional, organism-based
[3] = test system: Plasmodium falciparum; test: Antimalarial activity against chloroquine-resistant Plasmodium falciparum K1; assay type: functional, organism-based
[4] = test system: Plasmodium falciparum; test: Antimalarial activity against […] Plasmodium falciparum W2; assay type: functional, organism-based
[5] = test system: Plasmodium falciparum; test: Antimalarial activity against chloroquine-resistant Plasmodium falciparum […]; assay type: functional, organism-based
[6] = test system: Plasmodium falciparum; test: Antimalarial activity against chloroquine-sensitive Plasmodium falciparum 3D7; assay type: functional, organism-based
[7] = test system: PC-3; test: Cytotoxicity against human PC3 cells assessed as reduction in cell viability; assay type: functional, cell-based
[8] = test system: Enterococcus faecalis; test: Antimicrobial activity against Enterococcus faecalis; assay type: functional
[9] = test system: Staphylococcus aureus; test: Antimicrobial activity against Staphylococcus aureus; assay type: functional
[10] = Selectivity index, ratio of CC50 for human MRC5 cells assessed as reduction in cell viability to MIC for chloroquine-resistant Plasmodium falciparum K1; assay type: toxicity; settings: read-out: Selectivity Index
[11] = Selectivity index, ratio of CC50 for human MRC5 cells assessed as reduction in cell viability to MIC for […]; assay type: toxicity; settings: read-out: Selectivity Index
[12] = test system: MRC5; test: Cytotoxicity against human MRC5 cells assessed as reduction in cell viability; assay type: functional

Row | SMILES | IC50 [1] | IC50 [2] | IC50 [3] | also measured
1 | COc1ccc(OCc2cn(CCNc3ccnc4cc(Cl)ccc34)nn2)cc1 | 0.9 to 11.5 µM | 0.9 to 11.5 µM |  | 
2 | Clc1ccc2c(NCCn3cc(COc4ccc5ccccc5c4)nn3)ccnc2c1 | 0.9 to 11.5 µM | 0.9 to 11.5 µM |  | 
3 | COc1cccc(-n2cc(CNc3ccc4nc(-c5ccccc5)c(-c5ccccc5)nc4c3)nn2)c1 |  |  | 7.1 to 153 µM | 
4 | Cc1cccc(OCc2cn(CCNc3ccnc4cc(Cl)ccc34)nn2)c1 | 0.9 to 11.5 µM | 0.9 to 11.5 µM |  | 
5 | Clc1ccc2c(NCCCn3cc(COc4ccc5ccccc5c4)nn3)ccnc2c1 | 0.59 to 4.71 µM | 0.59 to 4.71 µM |  | 
6 | Clc1ccc2c(NCCn3cc(COc4c(Cl)cccc4Cl)nn3)ccnc2c1 | 0.9 to 11.5 µM | 0.9 to 11.5 µM |  | 
7 | O=C(CSc1nnc(Cc2ccccc2)n1-c1ccccc1)N1CCc2ccccc21 | 4.59 µM |  |  | IC50 [4]: 4.59 µM
8 | Fc1ccc(-n2cc(CNc3ccc4nc(-c5ccccc5)c(-c5ccccc5)nc4c3)nn2)cc1 |  |  | 7.1 to 153 µM | 
9 | COc1cccc(-n2cc(CN(Cc3cn(-c4cccc(OC)c4)nn3)c3ccc4nc(-c5ccc(F)cc5)c(-c5ccc(F)cc5)nc4c3)nn2)c1 |  |  | 9.76 to 3540 µM | 
10 | Fc1ccc(-c2nc3ccc(N(Cc4cn(-c5ccccc5)nn4)Cc4cn(-c5ccccc5)nn4)cc3nc2-c2ccc(F)cc2)cc1 |  |  | 9.76 to 3540 µM | 
11 | Cc1nnc(Cn2cc(C(=O)NNC(=S)Nc3ccccc3)c(=O)c3cc(F)c(Cl)cc32)n1N |  |  |  | IC50 [5]: 3.91 µM
12 | OC1(c2cn(CCNc3ccnc4cc(Cl)ccc34)nn2)CCCCC1 | 0.9 to 11.5 µM | 0.9 to 11.5 µM |  | 
13 | OC1(c2cn(CCCNc3ccnc4cc(Cl)ccc34)nn2)CCCCC1 | 0.59 to 4.71 µM | 0.59 to 4.71 µM |  | 
14 | OCc1cn(CCNc2ccnc3cc(Cl)ccc23)nn1 | 0.9 to 11.5 µM | 0.9 to 11.5 µM |  | 
15 | Cc1ccc(OCc2cn(CCNc3ccnc4cc(Cl)ccc34)nn2)cc1C | 0.9 to 11.5 µM | 0.9 to 11.5 µM |  | 
16 | COc1ccc2cc3[n+](cc2c1OCc1cn(-c2ccc(S(=O)(=O)N4CCOCC4)cc2)nn1)CCc1cc2c(cc1-3)OCO2 |  |  |  | IC50 [6]: 0.142 to 28 µM
17 | Cc1nnc(Cn2cc(C(=O)NNC(=O)Nc3ccccc3)c(=O)c3cc(F)c(Cl)cc32)n1N |  |  |  | IC50 [5]: 3.89 µM
18 | CC(=O)c1ccc(OCc2cn(CCNc3ccnc4cc(Cl)ccc34)nn2)cc1 | 0.9 to 11.5 µM | 0.9 to 11.5 µM |  | 
19 | Clc1ccc2c(NCCn3cc(COc4ccc(Br)cc4)nn3)ccnc2c1 | 0.9 to 11.5 µM | 0.9 to 11.5 µM |  | 
20 | Cc1ccc(-n2cc(CNc3ccc4nc(-c5ccccc5)c(-c5ccccc5)nc4c3)nn2)cc1 |  |  | 7.1 to 153 µM | 

Row | SMILES | IC50 [1] | IC50 [2] | IC50 [3] | also measured
21 | O=[N+]([O-])c1cccc(-n2cc(CN(Cc3cn(-c4cccc([N+](=O)[O-])c4)nn3)c3ccc4nc(-c5ccccc5)c(-c5ccccc5)nc4c3)nn2)c1 |  |  | 9.76 to 3540 µM | 
22 | FC(F)(F)c1cccc(-n2cc(CNc3ccc4nc(-c5ccccc5)c(-c5ccccc5)nc4c3)nn2)c1 |  |  | 7.1 to 153 µM | 
23 | c1ccc(-c2nc3ccc(N(Cc4cn(-c5ccccc5)nn4)Cc4cn(-c5ccccc5)nn4)cc3nc2-c2ccccc2)cc1 |  |  | 9.76 to 3540 µM | 
24 | CC(=O)c1ccc(OCc2cn(CCCNc3ccnc4cc(Cl)ccc34)nn2)cc1 | 1.14 µM | 0.59 µM |  | 
25 | Cc1cc(OCc2cn(CCNc3ccnc4cc(Cl)ccc34)nn2)ccc1Cl | 0.9 to 11.5 µM | 0.9 to 11.5 µM |  | 
26 | COc1ccc2cc3[n+](cc2c1OCc1cn(-c2ccc(S(=O)(=O)Nc4ccc([N+](=O)[O-])cc4)cc2)nn1)CCc1cc2c(cc1-3)OCO2 |  |  |  | IC50 [6]: 0.142 to 28 µM
27 | FC(F)(F)c1cccc(-n2cc(CN(Cc3cn(-c4cccc(C(F)(F)F)c4)nn3)c3ccc4nc(-c5ccccc5)c(-c5ccccc5)nc4c3)nn2)c1 |  |  | 9.76 to 3540 µM | 
28 | COc1ccc(NS(=O)(=O)c2ccc(-n3cc(COc4c(OC)ccc5cc6[n+](cc45)CCc4cc5c(cc4-6)OCO5)nn3)cc2)cc1 |  |  |  | IC50 [6]: 0.142 to 28 µM
29 | Fc1ccc(-n2cc(CN(Cc3cn(-c4ccc(F)cc4)nn3)c3ccc4nc(-c5ccccc5)c(-c5ccccc5)nc4c3)nn2)cc1 |  |  | 9.76 to 3540 µM | 
30 | COc1cccc(-n2cc(CN(Cc3cn(-c4cccc(OC)c4)nn3)c3ccc4nc(-c5ccccc5)c(-c5ccccc5)nc4c3)nn2)c1 |  |  | 9.76 to 3540 µM | 
31 | O=C(c1cn(CCNc2ccnc3cc(Cl)ccc23)nn1)C1CCCCO1 (stereo not given) | 0.9 to 11.5 µM | 0.9 to 11.5 µM |  | 
32 | COc1ccc2cc3[n+](cc2c1OCc1cn(-c2ccc(S(=O)(=O)Nc4ccc(F)cc4)cc2)nn1)CCc1cc2c(cc1-3)OCO2 |  |  |  | IC50 [6]: 0.142 to 28 µM
33 | COc1ccc2cc3[n+](cc2c1OCc1cn(-c2ccc(S(=O)(=O)Nc4ccc(Cl)cc4)cc2)nn1)CCc1cc2c(cc1-3)OCO2 |  |  |  | IC50 [6]: 0.142 to 28 µM; IC50 [7]: 0.142 µM
34 | O=[N+]([O-])c1ccc(OCc2cn(CCNc3ccnc4cc(Cl)ccc34)nn2)cc1 | 0.9 to 11.5 µM | 0.9 to 11.5 µM |  | 
35 | Fc1ccc(-c2nc3ccc(N(Cc4cn(-c5cccc(C(F)(F)F)c5)nn4)Cc4cn(-c5cccc(C(F)(F)F)c5)nn4)cc3nc2-c2ccc(F)cc2)cc1 |  |  | 9.76 to 3540 µM | 
36 | O=C(CSc1nnc(Cc2ccccc2)n1-c1ccc(Cl)cc1)N1CCc2ccccc21 | 48.8 µM |  |  | IC50 [4]: 48.8 µM
37 | Fc1ccc(-c2nc3ccc(NCc4cn(-c5ccccc5)nn4)cc3nc2-c2ccc(F)cc2)cc1 |  |  | 7.1 to 153 µM | 
38 | COc1ccc2cc3[n+](cc2c1OCc1cn(-c2ccc(S(=O)(=O)N4CCN(C)CC4)cc2)nn1)CCc1cc2c(cc1-3)OCO2 |  |  |  | IC50 [6]: 0.142 to 28 µM
39 | COc1ccc2cc3[n+](cc2c1OCc1cn(-c2ccc(S(=O)(=O)N4CCCCC4)cc2)nn1)CCc1cc2c(cc1-3)OCO2 |  |  |  | IC50 [6]: 0.142 to 28 µM
40 | CC(C)c1ccc(OCc2cn(CCNc3ccnc4cc(Cl)ccc34)nn2)cc1 | 0.9 to 11.5 µM | 0.9 to 11.5 µM |  | 

Row | SMILES | IC50 [1] | IC50 [2] | IC50 [3] | also measured
41 | COc1ccc2cc3[n+](cc2c1OCc1cn(-c2ccc(S(N)(=O)=O)cc2)nn1)CCc1cc2c(cc1-3)OCO2 |  |  |  | IC50 [6]: 0.142 to 28 µM
42 | OCc1cn(CCCNc2ccnc3cc(Cl)ccc23)nn1 | 0.59 to 4.71 µM | 0.59 to 4.71 µM |  | 
43 | Fc1ccc(-c2nc3ccc(NCc4cn(-c5cccc(C(F)(F)F)c5)nn4)cc3nc2-c2ccc(F)cc2)cc1 |  |  | 7.1 to 153 µM | 
44 | CC[C@H]1OC(=O)C[C@@H](O)[C@H](C)C(O[C@@H]2O[C@H](C)[C@@H](O)[C@H](N(C)C)[C@H]2O)C(CC=O)C[C@@H](C)C(=N\OCc2cn(-c3cnc4ccccc4c3)nn2)/C=C/C(C)=C/[C@@H]1CO[C@@H]1O[C@H](C)[C@@H](O)[C@@H](OC)[C@H]1OC (stereo not given in full) |  |  | 2 µg/mL | MIC [8]: 0.5 to 1 µg/mL (≈ 0.502 to 1 µM); MIC [9]: 0.5 to 1 µg/mL (≈ 0.502 to 1 µM)
45 | Cc1ccc(OCc2cn(CCNc3ccnc4cc(Cl)ccc34)nn2)cc1 | 0.9 to 11.5 µM | 0.9 to 11.5 µM |  | 
46 | COc1ccc2cc3[n+](cc2c1OCc1cn(-c2ccc(S(=O)(=O)Nc4ccccc4)cc2)nn1)CCc1cc2c(cc1-3)OCO2 |  |  |  | IC50 [6]: 0.142 to 28 µM
47 | Cc1ccc(-n2cc(CNc3ccc4nc(-c5ccc(F)cc5)c(-c5ccc(F)cc5)nc4c3)nn2)cc1 |  |  | 7.1 to 153 µM | 
48 | COc1ccc2cc3[n+](cc2c1OCc1cn(-c2ccc(S(=O)(=O)Nc4ccc(Br)cc4)cc2)nn1)CCc1cc2c(cc1-3)OCO2 |  |  |  | IC50 [6]: 0.142 to 28 µM
49 | Fc1ccc(-c2nc3ccc(N(Cc4cn(-c5ccc(F)cc5)nn4)Cc4cn(-c5ccc(F)cc5)nn4)cc3nc2-c2ccc(F)cc2)cc1 |  |  | 9.76 to 3540 µM | 
50 | O=[N+]([O-])c1cccc(-n2cc(CNc3ccc4nc(-c5ccc(F)cc5)c(-c5ccc(F)cc5)nc4c3)nn2)c1 |  |  | 7.1 to 153 µM | 
51 | CC[C@H]1OC(=O)C[C@@H](O)[C@H](C)C(O[C@@H]2O[C@H](C)[C@@H](O)[C@H](N(C)C)[C@H]2O)C(CC=O)C[C@@H](C)C(=N\OCCCc2cn(-c3cnc4ccccc4c3)nn2)/C=C/C(C)=C/[C@@H]1CO[C@@H]1O[C@H](C)[C@@H](O)[C@@H](OC)[C@H]1OC (stereo not given in full) |  |  | 0.73 µg/mL | MIC [8]: 0.5 to 1 µg/mL (≈ 0.489 to 0.977 µM); selectivity ratio [10]: 59; MIC [9]: 0.5 to 1 µg/mL (≈ 0.489 to 0.977 µM); selectivity ratio [11]: 59; CC50 [12]: 43 µg/mL (≈ 42 µM)
52 | O=[N+]([O-])c1cccc(-n2cc(CN(Cc3cn(-c4cccc([N+](=O)[O-])c4)nn3)c3ccc4nc(-c5ccc(F)cc5)c(-c5ccc(F)cc5)nc4c3)nn2)c1 |  |  | 9.76 to 3540 µM | 
53 | Cc1ccc(-n2cc(CN(Cc3cn(-c4ccc(C)cc4)nn3)c3ccc4nc(-c5ccccc5)c(-c5ccccc5)nc4c3)nn2)cc1 |  |  | 9.76 to 3540 µM | 
54 | c1ccc(-c2nc3ccc(NCc4cn(-c5ccccc5)nn4)cc3nc2-c2ccccc2)cc1 |  |  | 7.1 to 153 µM | 
55 | Clc1ccc(OCc2cn(CCNc3ccnc4cc(Cl)ccc34)nn2)cc1 | 0.9 to 11.5 µM | 0.9 to 11.5 µM |  | 
56 | Cc1ccc(-n2cc(CN(Cc3cn(-c4ccc(C)cc4)nn3)c3ccc4nc(-c5ccc(F)cc5)c(-c5ccc(F)cc5)nc4c3)nn2)cc1 |  |  | 9.76 to 3540 µM | 
57 | COc1cccc(-n2cc(CNc3ccc4nc(-c5ccc(F)cc5)c(-c5ccc(F)cc5)nc4c3)nn2)c1 |  |  | 7.1 to 153 µM | 
58 | O=[N+]([O-])c1cccc(-n2cc(CNc3ccc4nc(-c5ccccc5)c(-c5ccccc5)nc4c3)nn2)c1 |  |  | 7.1 to 153 µM | 
59 | Fc1ccc(-c2nc3ccc(NCc4cn(-c5ccc(F)cc5)nn4)cc3nc2-c2ccc(F)cc2)cc1 |  |  | 7.1 to 153 µM | 
60 | C[C@@H]1CC[C@H]2[C@@H](C)C(=O)O[C@@H]3O[C@@]4(C)CC[C@@H]1[C@]32OO4 [ARTEMISININ] | 0.25 µM | 0.03 µM |  | 
